Test results from US20240076347A1, “METHODS FOR PREVENTING FUNGAL INFECTIONS” (Cidara Therapeutics, Inc., priority 2016, published 2024).
Numbered stars: 1 amine (or outer) side, 2 acyl side, 3 side chain; on linkers, the order of the positions; unused ones are H or OH. Bridge positions count the residues as written; N and C are the ends. Square brackets hold non-standard residues; d marks the D form. Peptide text beside a SMILES is read from it. * marks the point of attachment. ξ: configuration not given here. Orn(4R-OH,5R-OCH2CH2NMe3+) = C[N+](C)(C)CCO[C@@H](N[*:3])[C@H](O)C[C@H](N[*:1])C(=O)[*:2]; pTerphenylCO(4''-OnC5H11) = CCCCCOc1ccc(-c2ccc(-c3ccc(C(=O)*)cc3)cc2)cc1; hTyr(3S-OH,4S-OH) = N[C@H](C(=O)O)[C@H](O)[C@@H](O)c1ccc(O)cc1; X1 = C[C@H]1CN([*:1])C(C(=O)[*:2])C1O; Hyp = O=C(O)[C@@H]1C[C@@H](O)CN1; ξT = CC(O)C(N)C(=O)O

What was measured:
A. fumigatus ATCC 13073 = assay: Disseminated aspergillosis in neutropenic ICR mice (Example 14), treatment and prophylaxis; assay type: in vivo, Aspergillus fumigatus
Method: Disseminated aspergillosis: ICR mice (6/grp) were made neutropenic by cyclophosphamide on Days −3 (270 mg/kg), +1 and +4 (90 mg/kg). IV infection with A. fumigatus ATCC 13073 (10^4 CFU/mouse) on Day 0. […] Survival monitored for a 10 days. Same model was used for prophylaxis except CD101 was dosed on Days −1, −3 or −5.

C. glabrata = assay: Neutropenic murine disseminated candidiasis model, PK/PD target determination; assay type: in vivo, Candida glabrata
Method: Infection model. A neutropenic, murine, disseminated candidiasis model was used for the treatment studies. The mice were rendered neutropenic (polymorphonuclear cell count, <100/mm3) by injecting 150 mg/kg of cyclophosphamide (Mead Johnson Pharmaceuticals, Evansville, IN) subcutaneously 4 days before infection, 100 mg/kg of cyclophosphamide 1 day before infection, and additional cyclophosphamide doses (100 mg/kg) on Day 2 and Day 4 after infection to ensure neutropenia throughout the 168 h (7 d) study period. Three mice were included in each treatment and control group.
The organisms were subcultured on SDA plates 24 h prior to infection. The inoculum was prepared by placing 3 to 5 colonies into 5 ml of sterile pyrogen-free 0.15 M NaCl warmed to 35° C. The final inoculum was adjusted to a 0.6 transmittance at 530 nm. The fungal count of the inoculum determined by viable counts on SDA was 6.1±0.2 log10 CFU/ml.
Disseminated infection with the Candida strains was achieved by injection of 0.1 ml of the inoculum via the lateral tail vein 2 h prior to the start of antifungal therapy. At the end of the study period, the animals were sacrificed by CO2 asphyxiation. The kidneys of each mouse were aseptically removed and placed in 0.15 M NaCl at 4° C. The kidneys were homogenized and serially diluted 1:10, and the aliquots were plated onto SDA for viable fungal colony counts after incubation for 24 h at 35° C. The lower limit of detection was 100 CFU/ml. The results are expressed as the mean CFU/kidney for three mice.
Treatment efficacy and pharmacodynamic target determination of CD101. Neutropenic mice were infected with one of 10 Candida strains as described above. […] Five dose levels that varied from 0.25 to 64 mg/kg were administered once in a 0.2-ml volume by IP route for the 168 h study period. Due to enhanced effect against single isolate, additional studies at 0.0156 and 0.0625 mg/kg was examined for C. glabrata 5592. Groups of three mice were used for each dosing regimen and control group. At the end of the treatment period (168 h), the mice were euthanized, and their kidneys were immediately processed for CFU determination as described above.
Data analysis. A sigmoid dose-effect (Hill) model was used to measure the in vivo potency of CD101. The efficacy endpoints included the dose level required to produce a 24 h net static effect (no change in organism burden compared to that at the start of therapy) and the dose required to achieve a 1-log10 reduction in colony counts (relative to the burden at the start of therapy), when achieved. The maximum response (Emax) was measured as the difference in the number of CFU/kidney relative to that of the untreated control animals. The doses associated with the stasis and 1-log10 endpoint for each strain was calculated using the equation: log10 D=[log10 (E/(Emax−E))/N]+log10 ED50, where D is the drug dose, E is the control growth in untreated animals, Emax is the maximal effect, Nis the slope of the dose-response relationship, and ED50 is the dose needed to achieve 50% of the maximal effect. The associated AUC/MIC targets were then calculated for each strain. […] The calculations were performed using both total and free drug concentrations. The coefficient of determination (R^2) was used to estimate the variance that might be due to regression with the PK/PD index. Kruskal-Wallis one-way analysis of variance (ANOVA) was used to determine if the differences in PK/PD targets were significant between the species.

[1] = test system: C. albicans SC-5314 biofilms; assay: Adhesion phase biofilms (prevention) on silicone elastomer discs; assay type: cell-based, Candida albicans
Method: Biofilms were formed on silicone elastomer (SE) discs using a catheter-associated-biofilm model (Chandra et al., Nature Protocols 3:1909, 2008; Chandra et al., J. […] Chandra et al., J. Dental Research 80: 903, 2001). For evaluation of activity against adhesion phase biofilms (prevention), Candida cells were adhered to catheter discs for 90 min. […] Discs incubated with fluconazole or media alone were used as controls in all experiments. […] Chandra et al., J. […] Chandra et al., J. Dental Research 80: 903, 2001). Following incubation with drugs, discs were transferred to fresh plates containing phosphate buffered saline with XTT and menadione, incubated for 3 h at 37° C. and optical density was read at 492 nm. Separate batches of biofilms were stained with fluorescent dyes (FUN1™, CONA) and observed under Confocal Scanning Laser Microscope (CSLM) to evaluate biofilm architecture and thickness (Chandra et al., Nature Protocols 3:1909, 2008; Chandra et al., J. […] Statistical analyses for all data were performed using GraphPad Prism 6 software. Drug treated groups were compared to control untreated groups using unpaired t-tests.

[2] = Median of 3 C. glabrata strains

CCCCCOc1ccc(-c2ccc(-c3ccc(C(=O)N[C@H]4C[C@@H](O)[C@@H](OCC[N+](C)(C)C)NC(=O)C5C(O)[C@@H](C)CN5C(=O)[C@H]([C@@H](C)O)NC(=O)[C@H]([C@H](O)[C@@H](O)c5ccc(O)cc5)NC(=O)[C@@H]5C[C@@H](O)CN5C(=O)C(C(C)O)NC4=O)cc3)cc2)cc1 (stereo partly drawn) [CD101] ({pTerphenylCO(4''-OnC5H11)}-[Orn(4R-OH,5R-OCH2CH2NMe3+)][ξT][Hyp][hTyr(3S-OH,4S-OH)]T[X1]; lactam 1-C)
survival (A. fumigatus ATCC 13073; prophylaxis): 100% | survival (A. fumigatus ATCC 13073; prophylaxis, single 5 mg/kg given up to 5 days prior to infection): improved survival depending on day given | survival (A. fumigatus ATCC 13073; treatment, IV/IP at 0.2, 1 or 5 mg/kg BID×5 d, vs vehicle): significant increase in survival compared to vehicle | survival (A. fumigatus ATCC 13073; treatment, single 2 mg/kg vs 0.2 mg/kg BID×5 d): Survival was comparable | 1 log kill 24 h Ave Free drug AUC/MIC (C. glabrata; 5592): 0.36 | 1 log kill free drug AUC0-168 h/MIC (C. glabrata; 5592): 2.54 | 1 log kill total drug AUC0-168 h/MIC (C. glabrata; 5592): 317.50 | Stasis 24 h Ave free drug AUC/MIC (C. glabrata; 5592): 0.05 | Stasis free drug AUC0-168 h/MIC (C. glabrata; 5592): 0.35 | Stasis total drug AUC0-168 h/MIC (C. glabrata; 5592): 43.16 | 1 log kill dose (C. glabrata; 5592, single IP dose, 168 h): 0.43 mg/kg | Static dose (C. glabrata; 5592, single IP dose, 168 h): 0.06 mg/kg | 1 log kill 24 h Ave Free drug AUC/MIC (C. glabrata; 10956): 1.20 | 1 log kill free drug AUC0-168 h/MIC (C. glabrata; 10956): 8.42 | 1 log kill total drug AUC0-168 h/MIC (C. glabrata; 10956): 1052.22 | Stasis 24 h Ave free drug AUC/MIC (C. glabrata; 10956): 0.48 | Stasis free drug AUC0-168 h/MIC (C. glabrata; 10956): 3.35 | Stasis total drug AUC0-168 h/MIC (C. glabrata; 10956): 418.68 | 1 log kill dose (C. glabrata; 10956, single IP dose, 168 h): 17.25 mg/kg | Static dose (C. glabrata; 10956, single IP dose, 168 h): 6.29 mg/kg | 1 log kill 24 h Ave Free drug AUC/MIC (C. glabrata; 35315): 0.42 | 1 log kill free drug AUC0-168 h/MIC (C. glabrata; 35315): 2.94 | 1 log kill total drug AUC0-168 h/MIC (C. glabrata; 35315): 367.06 | Stasis 24 h Ave free drug AUC/MIC (C. glabrata; 35315): 0.07 | Stasis free drug AUC0-168 h/MIC (C. glabrata; 35315): 0.50 | Stasis total drug AUC0-168 h/MIC (C. glabrata; 35315): 62.50 | 1 log kill dose (C. glabrata; 35315, single IP dose, 168 h): 2.39 mg/kg | Static dose (C. glabrata; 35315, single IP dose, 168 h): 0.34 mg/kg | 1 log kill 24 h Ave Free drug AUC/MIC (C. glabrata; Mean of 3 C. glabrata strains): 0.66 | 1 log kill dose (C. glabrata; Mean of 3 C. glabrata strains): 6.69 mg/kg | 1 log kill free drug AUC0-168 h/MIC (C. glabrata; Mean of 3 C. glabrata strains): 4.63 | 1 log kill total drug AUC0-168 h/MIC (C. glabrata; Mean of 3 C. glabrata strains): 578.93 | Stasis 24 h Ave free drug AUC/MIC (C. glabrata; Mean of 3 C. glabrata strains): 0.20 | Stasis free drug AUC0-168 h/MIC (C. glabrata; Mean of 3 C. glabrata strains): 1.40 | Stasis total drug AUC0-168 h/MIC (C. glabrata; Mean of 3 C. glabrata strains): 174.78 | Static dose (C. glabrata; Mean of 3 C. glabrata strains): 2.23 mg/kg | 1 log kill 24 h Ave Free drug AUC/MIC (C. glabrata; [2]): 0.42 | 1 log kill dose (C. glabrata; [2]): 2.39 mg/kg | 1 log kill free drug AUC0-168 h/MIC (C. glabrata; [2]): 2.94 | 1 log kill total drug AUC0-168 h/MIC (C. glabrata; [2]): 367.06 | Stasis 24 h Ave free drug AUC/MIC (C. glabrata; [2]): 0.07 | Stasis free drug AUC0-168 h/MIC (C. glabrata; [2]): 0.5 | Stasis total drug AUC0-168 h/MIC (C. glabrata; [2]): 62.50 | Static dose (C. glabrata; [2]): 0.34 mg/kg | kill at high doses (C. glabrata; a number of strains, kidney burden, 168 h): > 2 log10 | free AUC/MIC targets lower than the three comparator echinocandins (C. glabrata; in vivo): > 10 fold | biofilm architecture (CSLM) ([1]; 0.25 and 1 μg/ml): only remnants of adhered cells, and no biofilm maturation | biofilm metabolic activity (XTT) ([1]; 0.25 and 1 μg/ml, 24 h, vs untreated, P<0.05): significantly less biofilms | thickness of biofilms ([1]; CD101 exposed, untreated control 36 μm, P<0.05): 4 μm
